Values quoted from earlier work as cited in patent US12637513B2, “Method of treating cancer by administering an inhibitor of erythropoietin receptor activity comprising either erythropoietin receptor or erythropoietin protein” (ImmunEdge, Inc., priority 2022, dated 2026).

How the values were obtained:
PHD2 = PHD2 (Homo sapiens, UniProt Q9GZT9); details: target PHD2; cited from earlier work
[1] = test system: Hypoxia-Inducible Factor (HIF); details: target cell empty; cited from earlier work
PHD1-3 = details: target PHD1-3; cited from earlier work

Chain of PHD2 (Q9GZT9 whole entry): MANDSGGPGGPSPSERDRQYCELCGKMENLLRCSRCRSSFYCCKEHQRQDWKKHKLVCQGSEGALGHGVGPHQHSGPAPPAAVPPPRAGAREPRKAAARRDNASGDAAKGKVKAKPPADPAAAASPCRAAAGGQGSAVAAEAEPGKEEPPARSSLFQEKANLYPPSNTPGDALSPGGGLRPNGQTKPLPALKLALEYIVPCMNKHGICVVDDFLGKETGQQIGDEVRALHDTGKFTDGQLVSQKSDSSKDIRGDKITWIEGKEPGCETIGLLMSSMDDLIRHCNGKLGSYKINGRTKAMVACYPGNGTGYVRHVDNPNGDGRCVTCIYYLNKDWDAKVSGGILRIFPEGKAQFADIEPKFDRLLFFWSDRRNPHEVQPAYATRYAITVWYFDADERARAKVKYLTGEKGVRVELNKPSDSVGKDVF

| SMILES | IC50 (PHD2) [nM] | also measured |
| --- | --- | --- |
| O=C(O)CNC(=O)c1c(O)cc(CCc2ccccc2)n2ncnc12 [Enarodustat] | 220 to 5700 | – |
| CN1CCN(C(=O)COc2ccc(C34CC5CC(CC(C5)C3)C4)cc2)CC1 [IDF-11774] | – | IC50 [1]: 3650 nM |
| O=C(O)CNC(=O)c1c(O)c2ccccc2n(Cc2ccccc2)c1=O [IOX2] | 21 | – |
| COc1ccc(C(NC(=O)c2cnc(-c3cccnn3)nc2O)c2ccc(OC)cc2)cc1 [MK-8617] | – | IC50 (PHD1-3): 1 to 14 nM |
